This series is described as follows: method code SF-HPLC, from DOI: 10.1002/qsar.19910100205. Conditions: pH 3.5.
For the compound `O=C1CC(=O)N(c2ccccc2)O1`, the logD (commonly lipophilicity at a set pH, counting ionised and neutral species) is 0.54.
In turn, `O=C1CC(=O)C(c2ccccc2)N1` (configuration not stated) came in with a logD of 0.48.
As for `CC1(COc2ccc(CC3SC(=O)NC3=O)cc2)CCCCC1` (configuration not stated), the figure is 3.57.
As for `O=C1CS(=O)(=O)C(c2ccccc2)N1` (configuration not stated), the figure is 0.18.
With `O=c1[nH]c(=O)n(-c2ccccc2)o1` the figure was 1.68; with `O=C1NC(=O)C(Cc2ccccc2)O1` (configuration not stated), 1.2; with `O=C1NC(=O)N(c2ccccc2)C1=O`, 0.6.
For `O=C1CN(Cc2ccccc2)C(=O)N1`, the logD worked out at 0.76.
With `O=C1NC(=O)C(Cc2ccccc2)S1` (configuration not stated) the figure was 1.98.
As for `O=C1NC(=O)C(c2ccccc2)O1` (configuration not stated), the figure is 1.09.
With `O=C1CNC(=O)N1c1ccccc1` the figure was 0.04; with `O=C1CC(=O)N(Cc2ccccc2)C1`, 0.76; with `O=C1NC(=O)C(Cc2ccccc2)N1` (configuration not stated), 0.6.
The compound `O=C1CC(=O)C(c2ccccc2)O1` (configuration not stated) registered a logD of 1.07.
With `O=C1CN(c2ccccc2)C(=O)N1` the figure was 0.83; with `O=C1NC(=O)N(Cc2ccccc2)C1=O`, 1.19.
With `NS(=O)(=O)NC(=O)Cc1ccccc1` the figure was 0.31.

The record behind these values is the SangsterLogP compilation.
